Experiments:
ERK5 [1] = molecular target: T1, ERK5 (Homo sapiens, UniProt Q13164); test: ERK5 degradation immunoblot in Molt4 cells; type: cell-based; details: for ERK5 degradation (immunoblot): 0.1 μM or 1 μM; for ERK5 degradation (immunoblot) / concentration at which ERK5 degradation is seen (as low as / up to): 5 hours
T1 construct: endogenous in cells; host or cells: Molt4 cells
Method: Molt4 cells were maintained in RPMI 1640 supplemented with 10% FBS and 100 U/mL Penicillin-Streptomycin at 37° C. in the presence of 5% CO2. […] The cells were then lysed with RIPA buffer containing phosphatase/protease inhibitor, and cell extracts were precleared by centrifugation at 21000×g for 5 minutes at 4° C. The Pierce BCA protein assay kit was used to assess protein lysate concentration and normalized using SDS sample buffer. Lysates were resolved on 4-12% Tris-Base gels and transferred to an Immuno-Blot PVDF membrane. The membrane was blocked for 1 hour, then incubated with primary antibodies against ERK5 (Cell Signaling) and j-Actin (Cell Signaling). The next day, membranes were washed with TBS-T, then incubated at room temperature for 1 hour with IRDye@800-labeled goat anti-rabbit IgG and IRDye@800-labeled goat anti-mouse IgG (LI-COR) secondary antibodies. The membranes were detected on Odyssey® CLx system.

ERK5 [2] = molecular target: T1, ERK5; test: Multiplexed tandem mass tag quantitative mass spectrometry proteomics in Molt4 cells; type: cell-based; details: 100 nM, 5 hours, vs DMSO vehicle
Method: FIG. 3 is a scatterplot that depicts the change in relative protein abundance of compound 2 (100 nM, 5 h)-treated MOLT4 cells compared with DMSO vehicle control-treated cells. Protein abundance measurements were made using tandem mass tag quantitative mass spectrometry. The log 2fold change (log 2FC) is shown on the y axis and negative log 10p value (−log 10p value) on the x axis.

T1 sequence (Q13164 whole entry): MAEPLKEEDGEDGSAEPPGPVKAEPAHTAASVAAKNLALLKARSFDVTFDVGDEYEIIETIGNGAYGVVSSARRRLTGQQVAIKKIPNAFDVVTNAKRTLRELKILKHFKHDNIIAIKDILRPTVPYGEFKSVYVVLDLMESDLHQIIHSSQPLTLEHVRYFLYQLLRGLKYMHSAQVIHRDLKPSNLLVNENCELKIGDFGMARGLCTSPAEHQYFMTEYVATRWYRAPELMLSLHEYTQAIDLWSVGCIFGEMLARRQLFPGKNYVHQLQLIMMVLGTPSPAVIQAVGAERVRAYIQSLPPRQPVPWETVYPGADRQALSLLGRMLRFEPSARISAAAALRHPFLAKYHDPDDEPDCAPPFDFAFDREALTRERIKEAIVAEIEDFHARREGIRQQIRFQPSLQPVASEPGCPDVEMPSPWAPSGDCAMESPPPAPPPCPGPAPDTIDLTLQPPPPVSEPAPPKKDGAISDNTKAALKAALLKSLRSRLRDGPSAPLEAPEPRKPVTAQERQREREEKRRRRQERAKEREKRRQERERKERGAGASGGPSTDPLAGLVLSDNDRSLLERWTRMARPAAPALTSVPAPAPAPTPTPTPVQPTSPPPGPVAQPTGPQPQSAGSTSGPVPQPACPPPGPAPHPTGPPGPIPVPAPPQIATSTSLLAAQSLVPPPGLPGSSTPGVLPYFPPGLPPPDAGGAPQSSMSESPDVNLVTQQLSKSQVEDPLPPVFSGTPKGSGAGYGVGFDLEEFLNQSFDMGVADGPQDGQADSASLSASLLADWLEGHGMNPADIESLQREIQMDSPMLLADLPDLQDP

time of treatment within which ERK5 degradation is induced (ERK5 [1]; 0.1 μM and 1 μM, time course 1 h, 2 h, 3 h, 4 h) [h] | VHL dependence of ERK5 degradation (ERK5 [1]; 5 h, compared with negative control) | concentration at which ERK5 degradation is seen (as low as / up to) (ERK5 [1]) [µM] | concentration at which ERK5 degradation is induced (as low as) (ERK5 [1]; 5 hours of treatment) [nM] | Structure (SMILES) | ERK5 degradation (immunoblot) (ERK5 [1]) | change in relative protein abundance (proteome-wide selectivity) (ERK5 [2])
≤ 2 | degraded ERK5 in a VHL-dependent manner | ≤ 0.05 | ≤ 50 | Cc1ncsc1-c1ccc([C@H](C)NC(=O)[C@@H]2C[C@@H](O)CN2C(=O)[C@@H](NC(=O)CCCCCN2CCN(c3ccc4c(C5CCN(C(=O)c6ccc(OC(F)(F)F)cc6N)CC5)ncnc4c3)CC2)C(C)(C)C)cc1 [compound 2, (2S,4R)-1-((S)-2-(6-(4-(4-(1-(2-amino-4-(trifluoromethoxy)benzoyl)piperidin-4-yl)quinazolin-7-yl)piperazin-1-yl)hexanamido)-3,3-dimethylbutanoyl)-4-hydroxy-N—((S)-1-(4-(4-methylthiazol-5-yl)phenyl)ethyl)pyrrolidine-2-carboxamide] | potently degraded ERK5 | significant downregulation of only ERK5 protein levels
 |  | > 5 |  | Cc1ncsc1-c1ccc([C@H](C)NC(=O)[C@H]2C[C@H](O)CN2C(=O)[C@@H](NC(=O)CCCCCN2CCN(c3ccc4c(C5CCN(C(=O)c6ccc(OC(F)(F)F)cc6N)CC5)ncnc4c3)CC2)C(C)(C)C)cc1 [compound 13, (2R,4S)-1-((S)-2-(6-(4-(4-(1-(2-amino-4-(trifluoromethoxy)benzoyl)piperidin-4-yl)quinazolin-7-yl)piperazin-1-yl)hexanamido)-3,3-dimethylbutanoyl)-4-hydroxy-N—((S)-1-(4-(4-methylthiazol-5-yl)phenyl)ethyl)pyrrolidine-2-carboxamide, reference compound] | did not recruit the VHL E3 ligase or induce ERK5 degradation | 
